The source of these data is patent US8431556B2, “C-21-keto lupane derivatives preparation and use thereof” (Vertex Pharmaceuticals Incorporated, priority 2008, dated 2013).

The subject of the first assay is HIV-1 (HIVIIIB). The assay is described as follows: HIV-1 replication in MT2 cell line with and without 30% human serum (viral RT activity in supernatant). The format is cell-based. As to conditions: Human immunodeficiency virus 1, MT2, MT-2 cells, with 30% human serum, average IC50 if tested more than once, read-out: MT-2 (HIVIIIB) with 30% HS IC50 range. How it is done: HIV-1 Replication in MT2 cell line with and without 30% human serum: The cells are infected at a Multiciplicity of Infection (MOI) of 0.5 for 3 h and then washed twice with complete media to remove residual virus. Cells are then resuspended at 0.5×10^6/ml in complete medium (RPMI, 10% FBS, 1% sodium pyruvate), and seeded into 96-well plates (6.25×10^4/well). The cells are cultured in the presence or absence of various concentrations of test compounds in serial dilutions for 3 days at 37° C. The test compounds are serially diluted in complete medium supplemented or not with 30% human serum. After 3 days, 100 μL of cultured medium with cells are replaced with 120 μL of freshly diluted test compounds in complete medium containing or not 30% Human serum. The level of HIV-1 replication is determined at days 5 after infection by the presence of viral RT activity in harvested supernatant fluid. The IC50 and IC90 values for the virus replication are determined by using GRAPHPAD PRISM software.
The IC50 of the compounds tested in accordance with the HIV replication activity assay MT-2 (HIVIIIB) are represented in Table 4 (without HS) and Table 5 (with 30% HS)
With `CC(C)C1=C2[C@H]3CC[C@@H]4[C@@]5(C)CC[C@H](OC(=O)CC(C)(C)C(=O)O)C(C)(C)[C@@H]5CC[C@@]4(C)[C@]3(C)CC[C@@]2(C(=O)Nc2ccccn2)CC1=O` [9-25, 3β-O-(3′,3′-Dimethylsuccinyl)-21-oxolup-18-en-28-oic acid N-pyridin-2-yl-acetamide], the IC50 is < 199 nM. The same measure, in the same setting: next, `CC(C)C1=C2C3CCC4[C@@]5(C)CC[C@H](OC(=O)CC(C)(C)C(=O)O)C(C)(C)C5CC[C@@]4(C)[C@]3(C)CC[C@@]2(C(=O)Nc2ccc(F)cc2)CC1=O` (stereo partly drawn) [9-88, 3β-O-(3′,3′-Dimethylsuccinyl)-21-oxolup-18-en-28-oic acid N-4-fluoro-phen-1-yl acetamide]: < 199 nM; `CC(C)C1=C2[C@H]3CC[C@@H]4[C@@]5(C)CC[C@H](OC(=O)CC(C)(C)C(=O)O)C(C)(C)[C@@H]5CC[C@@]4(C)[C@]3(C)CC[C@@]2(C(=O)Nc2nnnn2C)CC1=O` [9-66, 3β-O-(3′,3′-Dimethylsuccinyl)-21-oxolup-18-en-28-oic acid N-(1-methyl-1H-tetrazol-5-yl)-acetamide]: 200 to 999 nM. Take `CC(C)C1=C2[C@H]3CC[C@@H]4[C@@]5(C)CC[C@H](OC(=O)CC(C)(C)C(=O)O)C(C)(C)[C@@H]5CC[C@@]4(C)[C@]3(C)CC[C@@]2(C(=O)NCc2ccc(Cl)cc2)CC1=O` [9-14, 3β-O-(3′,3′-Dimethylsuccinyl)-21-oxolup-18-en-28-oic acid N-4-chloro-benzylamide]: the IC50 was < 199 nM.

On to `CC(=O)N1CCN(C(=O)[C@@]23CC[C@]4(C)[C@H](CC[C@@H]5[C@@]6(C)CC[C@H](OC(=O)CC(C)(C)C(=O)O)C(C)(C)[C@@H]6CC[C@]54C)C2=C(C(C)C)C(=O)C3)CC1` [9-8, 3β-O-(3′,3′-Dimethylsuccinyl)-21-oxolup-18-en-28-oic acid N-(4-acetylpiperazinyl) acetamide], for which the IC50 was < 199 nM. With `CC(C)C1=C2C3CCC4[C@@]5(C)CC[C@H](OC(=O)CC(C)(C)C(=O)O)C(C)(C)C5CC[C@@]4(C)[C@]3(C)CC[C@@]2(C(=O)NC[C@H]2CCCN2)CC1=O` (stereo partly drawn) [9-81, 3β-O-(3′,3′-Dimethylsuccinyl)-21-oxolup-18-en-28-oic acid N-((R)-1-pyrrolidin-2-ylmethyl)-acetamide], the IC50 is < 199 nM. For `COC(=O)NCCNC(=O)[C@@]12CC[C@]3(C)[C@H](CC[C@@H]4[C@@]5(C)CC[C@H](OC(=O)CC(C)(C)C(=O)O)C(C)(C)[C@@H]5CC[C@]43C)C1=C(C(C)C)C(=O)C2` [9-24, 3β-O-(3′,3′-Dimethylsuccinyl)-21-oxolup-18-en-28-oic acid N-(2-acetylamino-ethyl)-carbamic acid methyl ester], the IC50 is < 199 nM. Turning to `CC(C)C1=C2[C@H]3CC[C@@H]4[C@@]5(C)CC[C@H](OC(=O)CC(C)(C)C(=O)O)C(C)(C)[C@@H]5CC[C@@]4(C)[C@]3(C)CC[C@@]2(C(=O)Nc2cncnc2)CC1=O` [9-51, 3β-O-(3′,3′-Dimethylsuccinyl)-21-oxolup-18-en-28-oic acid N-pyrimidin-5-yl-acetamide], the IC50 was < 199 nM. Same read-out and setting: then `CC(C)C1=C2C3CCC4[C@@]5(C)CC[C@H](OC(=O)CC(C)(C)C(=O)O)C(C)(C)C5CC[C@@]4(C)[C@]3(C)CC[C@@]2(C(=O)Nc2nnn(C)n2)CC1=O` (stereo partly drawn) [9-90, 3β-O-(3′,3′-Dimethylsuccinyl)-21-oxolup-18-en-28-oic acid N-(1-methyl-1H-tetrazol-3-yl)-acetamide], with < 199 nM; and `CC(C)C1=C2[C@H]3CC[C@@H]4[C@@]5(C)CC[C@H](OC(=O)CC(C)(C)C(=O)O)C(C)(C)[C@@H]5CC[C@@]4(C)[C@]3(C)CC[C@@]2(C(=O)Nc2cnn(C)c2)CC1=O` [9-57, 3β-O-(3′,3′-Dimethylsuccinyl)-21-oxolup-18-en-28-oic acid N-4-amino-1-methyl-1H-pyrazole acetamide], with < 199 nM. On to `CC(C)C1=C2C3CCC4[C@@]5(C)CC[C@H](OC(=O)CC(C)(C)C(=O)O)C(C)(C)C5CC[C@@]4(C)[C@]3(C)CC[C@@]2(C(=O)NC[C@@H]2CCCN2)CC1=O` (stereo partly drawn) [9-82, 3β-O-(3′,3′-Dimethylsuccinyl)-21-oxolup-18-en-28-oic acid N-((S)-1-pyrrolidin-2-ylmethyl)-acetamide], for which the IC50 is < 199 nM. On to `Cc1ncncc1NC(=O)[C@@]12CC[C@]3(C)[C@H](CC[C@@H]4[C@@]5(C)CC[C@H](OC(=O)CC(C)(C)C(=O)O)C(C)(C)[C@@H]5CC[C@]43C)C1=C(C(C)C)C(=O)C2` [9-55, 3β-O-(3′,3′-Dimethylsuccinyl)-21-oxolup-18-en-28-oic acid N-4-methyl-pyrimidin-5-yl-acetamide], for which the half-maximal inhibitory concentration (IC50) was < 199 nM. On the same count and under the same terms, then `COC(=O)NC1CCN(C(=O)[C@@]23CC[C@]4(C)[C@H](CC[C@@H]5[C@@]6(C)CC[C@H](OC(=O)CC(C)(C)C(=O)O)C(C)(C)[C@@H]6CC[C@]54C)C2=C(C(C)C)C(=O)C3)CC1` [9-45, 3β-O-(3′,3′-Dimethylsuccinyl)-21-oxolup-18-en-28-oic acid N-(4-aminocarboxylic acid methyl ester-1-piperidine)-acetamide], with < 199 nM; and `CC(C)C1=C2[C@H]3CC[C@@H]4[C@@]5(C)CC[C@H](OC(=O)CC(C)(C)C(=O)O)C(C)(C)[C@@H]5CC[C@@]4(C)[C@]3(C)CC[C@@]2(C(=O)Nc2cnccn2)CC1=O` [9-59, 3β-O-(3′,3′-Dimethylsuccinyl)-21-oxolup-18-en-28-oic acid N-pyrazin-2-yl-acetamide], with < 199 nM. Consider `Cc1ccccc1NC(=O)[C@@]12CC[C@]3(C)[C@H](CC[C@@H]4[C@@]5(C)CC[C@H](OC(=O)CC(C)(C)C(=O)O)C(C)(C)[C@@H]5CC[C@]43C)C1=C(C(C)C)C(=O)C2` [9-47, 3β-O-(3′,3′-Dimethylsuccinyl)-21-oxolup-18-en-28-oic acid N-2-methyl-phen-1-yl acetamide], for which the IC50 was < 199 nM. On to `CCOC(=O)NC1CCN(C(=O)[C@@]23CC[C@]4(C)[C@H](CC[C@@H]5[C@@]6(C)CC[C@H](OC(=O)CC(C)(C)C(=O)O)C(C)(C)[C@@H]6CC[C@]54C)C2=C(C(C)C)C(=O)C3)CC1` [9-67, 3β-O-(3′,3′-Dimethylsuccinyl)-21-oxolup-18-en-28-oic acid N-(4-aminocarboxylic acid ethyl ester-1-piperidine)-acetamide], for which the IC50 was < 199 nM. `CC(C)C1=C2[C@H]3CC[C@@H]4[C@@]5(C)CC[C@H](OC(=O)CC(C)(C)C(=O)O)C(C)(C)[C@@H]5CC[C@@]4(C)[C@]3(C)CC[C@@]2(C(=O)Nc2cccnc2)CC1=O` [9-26, 3β-O-(3′,3′-Dimethylsuccinyl)-21-oxolup-18-en-28-oic acid N-pyridin-3-yl-acetamide]: the IC50 is < 199 nM. On the same count and under the same terms, then `CC(C)C1=C2C3CCC4[C@@]5(C)CC[C@H](OC(=O)CC(C)(C)C(=O)O)C(C)(C)C5CC[C@@]4(C)[C@]3(C)CC[C@@]2(C(=O)Nc2ncc3ccccc3n2)CC1=O` (stereo partly drawn) [9-89, 3β-O-(3′,3′-Dimethylsuccinyl)-21-oxolup-18-en-28-oic acid N-quinazolin-2-yl acetamide], with < 199 nM; and `CC(C)C1=C2C3CCC4[C@@]5(C)CC[C@H](OC(=O)CC(C)(C)C(=O)O)C(C)(C)C5CC[C@@]4(C)[C@]3(C)CC[C@@]2(C(=O)NC[C@@H]2CCCN2C)CC1=O` (stereo partly drawn) [9-84, 3β-O-(3′,3′-Dimethylsuccinyl)-21-oxolup-18-en-28-oic acid N-((S)-1-methyl-pyrrolidin-2-ylmethyl)-acetamide], with < 199 nM; and `Cc1nnc(NC(=O)[C@@]23CC[C@]4(C)[C@H](CC[C@@H]5[C@@]6(C)CC[C@H](OC(=O)CC(C)(C)C(=O)O)C(C)(C)[C@@H]6CC[C@]54C)C2=C(C(C)C)C(=O)C3)s1` [9-76, 3β-O-(3′,3′-Dimethylsuccinyl)-21-oxolup-18-en-28-oic acid N-(5-methyl-[1,3,4]thiadiazol-2-yl)-acetamide], with < 199 nM. The same measure, in the same setting: then `CC(C)OC(=O)NC1CCN(C(=O)[C@@]23CC[C@]4(C)[C@H](CC[C@@H]5[C@@]6(C)CC[C@H](OC(=O)CC(C)(C)C(=O)O)C(C)(C)[C@@H]6CC[C@]54C)C2=C(C(C)C)C(=O)C3)CC1` [9-68, 3β-O-(3′,3′-Dimethylsuccinyl)-21-oxolup-18-en-28-oic acid N-(4-aminocarboxylic acid isopropyl ester-1-piperidine)-acetamide], with < 199 nM. Still for that read-out and setting: next, `CC(C)C1=C2[C@H]3CC[C@@H]4[C@@]5(C)CC[C@H](OC(=O)CC(C)(C)C(=O)O)C(C)(C)[C@@H]5CC[C@@]4(C)[C@]3(C)CC[C@@]2(C(=O)N2CCC(N)CC2)CC1=O` [9-42]: < 199 nM.

The same assay, now with this note: Human immunodeficiency virus 1, MT2, MT-2 cells, without HS, average IC50 if tested more than once, read-out: MT-2 (HIVIIIB) IC50 range.
In the case of `CC(C)NC(=O)[C@@]12CC[C@]3(C)[C@H](CC[C@@H]4[C@@]5(C)CC[C@H](OC(=O)CC(C)(C)C(=O)O)C(C)(C)[C@@H]5CC[C@]43C)C1=C(C(C)C)C(=O)C2` [9-3, 3β-O-(3′,3′-Dimethylsuccinyl)-21-oxolup-18-en-28-oic acid N-isopropylamide], the IC50 was < 199 nM.

In general, IC50 refers to the concentration that inhibits the measured activity by half.
